# Measurements: PubChem BioAssay AID1845197 (Molecular Pharmacology Branch, DTP, NCI, 2023)
# “And” between values parts separate entries of the source, which are not always exact repeats. Identical values can stand only once.
# Tested on: 349418-098-R tumor spheroid viability
# Assay: Anticancer human tumor 349418-098-R patient-derived lung adenocarcinoma cell line growth inhibition
# Settings: spheroids with HUVEC and MSC; for viability, T/C: stronger effect = lower value
# In short: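 Complex spheroids of malignant cells with endothelial cells and mesenchymal stem cells; agents alone or combined, from near clinical Cmax (or 10 microM if unknown) down in half-log steps, 0.25% DMSO final.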
# [1] = curve of first compound, second compound 0.003 µM
# 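Also: spheroids exposed to compound for 7 days before measurement.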
# 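For viability, T/C in this document: percent of vehicle control viability with 100% = DMSO-treated spheroids.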
compound,measurement,setting,value
O=C(c1cc(Cc2n[nH]c(=O)c3ccccc23)ccc1F)N1CCN(C(=O)C2CC2)CC1 + COc1cc2c(cc1O)CCNC21CSC2c3c(OC(C)=O)c(C)c4c(c3C(COC1=O)N1C(O)C3Cc5cc(C)c(OC)c(O)c5C(C21)N3C)OCO4,IC50,"curve of first compound, second compound 30 pM",> 30000 nM
same,IC50,"curve of first compound, second compound 94.9 pM",> 30000 nM
same,IC50,"curve of first compound, second compound 0.0003 µM",3700 nM
same,IC50,"curve of first compound, second compound 0.000949 µM",< 94.9 nM
same,IC50,[1],< 94.9 nM
same,"viability, T/C","second compound 30 pM, first compound 0.0949 µM",122%
same,"viability, T/C","second compound 30 pM, first compound 0.3 µM",107%
same,"viability, T/C","second compound 30 pM, first compound 0.949 µM",108%
same,"viability, T/C","second compound 30 pM, first compound 3 µM",111%
same,"viability, T/C","second compound 30 pM, first compound 9.49 µM",107%
same,"viability, T/C","second compound 30 pM, first compound 30 µM",69.6%
same,"viability, T/C","second compound 94.9 pM, first compound 0.0949 µM",104%
same,"viability, T/C","second compound 94.9 pM, first compound 0.3 µM",108%
same,"viability, T/C","second compound 94.9 pM, first compound 0.949 µM",102%
same,"viability, T/C","second compound 94.9 pM, first compound 3 µM",107%
same,"viability, T/C","second compound 94.9 pM, first compound 9.49 µM",98.7%
same,"viability, T/C","second compound 94.9 pM, first compound 30 µM",54.6%
same,"viability, T/C","second compound 0.0003 µM, first compound 0.0949 µM",94.9%
same,"viability, T/C","second compound 0.0003 µM, first compound 0.3 µM",87.4%
same,"viability, T/C","second compound 0.0003 µM, first compound 0.949 µM",79.7%
same,"viability, T/C","second compound 0.0003 µM, first compound 3 µM",58.9%
same,"viability, T/C","second compound 0.0003 µM, first compound 9.49 µM",19.3%
same,"viability, T/C","second compound 0.0003 µM, first compound 30 µM",5.2%
same,"viability, T/C","second compound 0.000949 µM, first compound 0.0949 µM",0.44%
same,"viability, T/C","second compound 0.000949 µM, first compound 0.3 µM",0.4%
same,"viability, T/C","second compound 0.000949 µM, first compound 0.949 µM",0.25%
same,"viability, T/C","second compound 0.000949 µM, first compound 3 µM",0.25%
same,"viability, T/C","second compound 0.000949 µM, first compound 9.49 µM",0.15%
same,"viability, T/C","second compound 0.000949 µM, first compound 30 µM",0.44%
same,"viability, T/C","second compound 0.003 µM, first compound 0.0949 µM",1.64%
same,"viability, T/C","second compound 0.003 µM, first compound 0.3 µM",1.88%
same,"viability, T/C","second compound 0.003 µM, first compound 0.949 µM",1.67%
same,"viability, T/C","second compound 0.003 µM, first compound 3 µM",2.88%
same,"viability, T/C","second compound 0.003 µM, first compound 9.49 µM",3.79%
same,"viability, T/C","second compound 0.003 µM, first compound 30 µM",5.74%
Cc1sc2c(c1C)C(c1ccc(Cl)cc1)=NC(CC(=O)Nc1ccc(O)cc1)c1nnc(C)n1-2 (centres undefined),"viability, T/C",compound 0.00949 µM,99.1% and 96.4% and 100%
same,"viability, T/C",compound 0.03 µM,101% and 90.4% and 111%
same,"viability, T/C",compound 0.0949 µM,73% and 49% and 66.3%
same,"viability, T/C",compound 0.3 µM,13.4% and 14.2% and 11.2%
same,"viability, T/C",compound 0.949 µM,1.66% and 1.1% and 1.46%
same,"viability, T/C",compound 3 µM,0.54% and 0.67% and 1%
same,IC50,curve of compound,148 nM and 96.5 nM and 134 nM
Cc1cc(C)c(CNC(=O)c2cc(-c3ccc(CN4CCOCC4)cc3)cc3c2cnn3C2CCCC2)c(=O)[nH]1 + CC[C@@]1(O)C(=O)OCc2c1cc1n(c2=O)Cc2cc3c(CN(C)C)c(O)ccc3nc2-1,IC50,[1],6590 nM
same,IC50,"curve of first compound, second compound 0.00949 µM",5790 nM
same,IC50,"curve of first compound, second compound 0.03 µM",1030 nM
same,IC50,"curve of first compound, second compound 0.0949 µM",< 31.6 nM
same,IC50,"curve of first compound, second compound 0.3 µM",< 31.6 nM
same,"viability, T/C","second compound 0.003 µM, first compound 0.0316 µM",98.5%
same,"viability, T/C","second compound 0.003 µM, first compound 0.1 µM",97.9%
same,"viability, T/C","second compound 0.003 µM, first compound 0.316 µM",94.8%
same,"viability, T/C","second compound 0.003 µM, first compound 1 µM",92.6%
same,"viability, T/C","second compound 0.003 µM, first compound 3.16 µM",89.3%
same,"viability, T/C","second compound 0.003 µM, first compound 10 µM",27.5%
same,"viability, T/C","second compound 0.00949 µM, first compound 0.0316 µM",93.4%
same,"viability, T/C","second compound 0.00949 µM, first compound 0.1 µM",95.7%
same,"viability, T/C","second compound 0.00949 µM, first compound 0.316 µM",88.9%
same,"viability, T/C","second compound 0.00949 µM, first compound 1 µM",84.4%
same,"viability, T/C","second compound 0.00949 µM, first compound 3.16 µM",71.9%
same,"viability, T/C","second compound 0.00949 µM, first compound 10 µM",31.4%
same,"viability, T/C","second compound 0.03 µM, first compound 0.0316 µM",73.4%
same,"viability, T/C","second compound 0.03 µM, first compound 0.1 µM",75.2%
same,"viability, T/C","second compound 0.03 µM, first compound 0.316 µM",62.4%
same,"viability, T/C","second compound 0.03 µM, first compound 1 µM",52.7%
same,"viability, T/C","second compound 0.03 µM, first compound 3.16 µM",26.4%
same,"viability, T/C","second compound 0.03 µM, first compound 10 µM",8.63%
same,"viability, T/C","second compound 0.0949 µM, first compound 0.0316 µM",19.2%
same,"viability, T/C","second compound 0.0949 µM, first compound 0.1 µM",14.8%
same,"viability, T/C","second compound 0.0949 µM, first compound 0.316 µM",8.67%
same,"viability, T/C","second compound 0.0949 µM, first compound 1 µM",5.66%
same,"viability, T/C","second compound 0.0949 µM, first compound 3.16 µM",5.2%
same,"viability, T/C","second compound 0.0949 µM, first compound 10 µM",4.15%
same,"viability, T/C","second compound 0.3 µM, first compound 0.0316 µM",2.97%
same,"viability, T/C","second compound 0.3 µM, first compound 0.1 µM",3.59%
same,"viability, T/C","second compound 0.3 µM, first compound 0.316 µM",3.1%
same,"viability, T/C","second compound 0.3 µM, first compound 1 µM",3.16%
same,"viability, T/C","second compound 0.3 µM, first compound 3.16 µM",3.27%
same,"viability, T/C","second compound 0.3 µM, first compound 10 µM",3.11%
CC(C)n1c(=O)n(C)c2cnc3cc(F)c(-c4ccc(OCCCN5CCCCC5)nc4)cc3c21,"viability, T/C",compound 0.0316 µM,89% and 110% (2×)
same,"viability, T/C",compound 0.1 µM,97.8% and 97.9% and 106%
same,"viability, T/C",compound 0.316 µM,94.4% and 93.9% and 108%
same,"viability, T/C",compound 1 µM,105% and 97.3% and 108%
same,"viability, T/C",compound 3.16 µM,109% and 102% and 105%
same,"viability, T/C",compound 10 µM,56.8% and 48.3% and 85.3%
same,IC50,curve of compound,> 10000 nM and 9630 nM
